“Also recorded” adds a separate entry of the source. Like-named read-outs stand apart in the source and are kept apart here.
How the values were obtained:
[1] = tested on: spontaneous hypertensive rats; experiment: Tail blood pressure of 7-week-old spontaneous hypertensive rats after L- or D-arginine hydrochloride (Example 1); assay type: in vivo, rat
Experimental: (§1) Male spontaneous hypertensive rats and Wistar Kyoto rats were purchased from Charles River (Wilmington, Mass.) and were fed and housed under identical conditions for at least five days before use. The rats were caged in groups of three with food and water ad libitum under an artificial light-dark cycle of twelve hours.
(§2) L- and D-arginine hydrochloride were obtained from Aldrich (Milwaukee, Wis.). Forty-five-day-old spontaneous hypertensive rats were injected with L-arginine hydrochloride, 5, 16, 50, 80, 100 and 500 mg/kg body weight, or D-arginine-hydrochloride, 80 and 100 mg/kg body weight, intraperitoneally,in a final volume of 1.0 ml buffered saline for four consecutive days. The control spontaneous hypertensive rats and Wistar Kyoto rats were injected with saline. Forty-five day old Wistar Kyoto strain rats were injected with 50 mg/kg body weight of L-arginine hydrochloride for four days. Each group consisted of four or five experimental animals. Blood pressure from the tail was measured before the first injection and twenty-four hours after the last arginine administration. Blood pressure was measured with anesthesia, using a pletysmograph.
(§3) Results are expressed as the means ±SEM. A two-way analysis of variance was performed to compare blood values between control, L-arginine and D-arginine treated spontaneous hypertensive rats. Specific differences between groups were tested by the Newman-Keuls test. The null hypothesis was rejected when the p value was less than 0.05.
(§4) The blood pressure of 7-week-old spontaneous hypertensive rats and Wistar Kyoto rats was monitored before and after administration of L- and D-arginine. […] At a dose as low as 16 mg/kg body weight, L-arginine lowered blood pressure by 10 mm Hg […].

[2] = tested on: Wistar Kyoto rats; experiment: Tail blood pressure of age-matched Wistar Kyoto rats after L- or D-arginine hydrochloride (Example 1); assay type: in vivo, rat; settings: for effect on blood pressure: age-matched normotensive Wistar Kyoto rats
Experimental: as §1, §2, §3, §4
For example, blood pressure of 7-week-old Wistar Kyoto rats remained unchanged following four days of treatment with L-arginine (50 mg/kg body weight), 122.3±1.3 mm Hg vs. 124.5±1.7 mm Hg for control and treated, respectively, n=3.

[3] = tested on: anesthetized rabbit; settings: cited from earlier work
[4] = tested on: spontaneous hypertensive rats; experiment: Systolic blood pressure in 7-week-old SHR, heme vs. arginine component and heme oxygenase inhibitor (Table 3); assay type: in vivo, rat; settings: for reduction of blood pressure: "same dose (15 mg/kg body weight)", control increased by 7.7 mmHg; for Systolic blood pressure, after treatment: n=5, 4 days, heme-L-arginate = 15 mg hemin + 16 mg L-arginine per kg, hemin 15, L-arginine 16, ZnDPBG 7 mg/kg, 23 hours after last injection, *p<0.005 vs control 166.0±2.7; for Systolic blood pressure, after treatment / Systolic blood pressure, before treatment: ±SD; for Systolic blood pressure, before treatment: n=5, baseline
Experimental: Applicants further examined whether the effect is due to heme or to the arginine component of heme arginate. In separate experiments, applicants treated 7-week-old spontaneous hypertensive rats with heme-L-arginate, hemin alone and L-arginine alone at the same dose (15 mg/kg body weight). […] At the same period, blood pressure in control spontaneous hypertensive rats increased by 7.7 mmHg.
Systolic blood pressure was measured by tail cuff pletysmograph before and 23 hours after the last injection. Results are the same ±SD, n=5 in each group; significance from control spontaneous hypertensive rats after 4 days of treatment with the vehicle (166.0±2.7), *p<0.005.

[5] = tested on: spontaneous hypertensive rats; settings: young SHR; cited from earlier work
[6] = tested on: renal cytochrome P-450; settings: in vivo; cited from earlier work

N=C(N)NCCC[C@@H](N)C(=O)O [D-arginine]
effect on blood pressure ([1]; 80 and 100 mg/kg body weight, four days, 7-week-old SHR): did not effect the blood pressure; also recorded: had no effect on blood pressure | effect on blood pressure ([1]; concentrations lower than 80 mg/kg body weight, SHR): did not alter blood pressure | effect on blood pressure [2]: Neither L-arginine nor D-arginine had any effect on blood pressure

N=C(N)NCCC[C@H](N)C(=O)O [L-arginine, 2-amino-5-guanidinovaleric acid]
effect on the inhibition of N-monomethyl-L-arginine ([3]; L-arginine administration): abolished the inhibition of N-monomethyl-L-arginine within fifteen minutes | decrease in blood pressure ([1]; 16 mg/kg body weight i.p., four consecutive days, 7-week-old SHR): 10 mm Hg | maximal effect, decrease in blood pressure ([1]; 100 mg/kg body weight (maximal dose) i.p., four days, 7-week-old SHR): 30 mm Hg | effect on blood pressure ([1]; 5-500 mg/kg i.p., four days, 7-week-old SHR): dose-dependent decrease in blood pressure | overall reduction of blood pressure ([1]; at the maximal dose, young SHR): 20% | effect on blood pressure of higher doses ([1]; doses higher than 100 mg/kg, 7-week-old SHR): did not lower blood pressure further | reduction of blood pressure [4]: 9.7 mmHg | Systolic blood pressure, after treatment [4]: 144.4 ± 3.0 mmHg | Systolic blood pressure, before treatment [4]: 154.1 ± 4.5 mmHg | blood pressure, treated ([2]; 50 mg/kg body weight, four days, 7-week-old WKY, n=3, ±SEM, control 122.3±1.3): 124.5±1.7 mm Hg | effect on blood pressure [2]: Neither L-arginine nor D-arginine had any effect on blood pressure; also recorded: no effect was documented in normotensive rats

CN=C(N)NCCC[C@H](N)C(=O)O [N-monomethyl-L-arginine]
effect on mean arterial blood pressure [3]: dose-dependent increase in mean arterial blood pressure

[Cl][Sn][Cl] [SnCl2]
effect on blood pressure [5]: marked decrease in blood pressure | effect on renal cytochrome P-450 [6]: depletion of renal cytochrome P-450

Hemin
reduction of blood pressure [4]: 14.3 mmHg | Systolic blood pressure, after treatment [4]: 142.2 ± 2.4 mmHg | Systolic blood pressure, before treatment [4]: 156.5 ± 3.3 mmHg

Zn-2,4-deuteropophyrin IX bis glycol [ZnDPBG]
effect on blood pressure ([4]; inhibitor alone): did not have any effect on blood pressure | Systolic blood pressure, after treatment [4]: 169.1 ± 2.5 mmHg | Systolic blood pressure, before treatment [4]: 154.0 ± 4.0 mmHg

Source: patent US5217997A, “Use of L-arginine in the treatment of hypertension and other vascular disorders” (priority 1992, dated 1993)
